Data taken from PMC10747602, “Dose Response, Dosimetric, and Metabolic Evaluations of Replacement PFAS Perfluoro-(2,5,8-trimethyl-3,6,9-trioxadodecanoic) Acid (HFPO-TeA)” (Toxics, 2023).
Where two headings read alike, the source gives them in different places.

Experiments:
[1] = set-up: method as in PMID 35436088; details: male mice, cited from earlier work
[2] = system: Thyroid hormones T3, rT3, and T4; assay: Plasma thyroid hormone assessment; type: in vivo, Sprague Dawley rats; details: 5 days
Procedure: Information on the chemicals used in the plasma thyroid hormone analysis can be found in Supplementary Text S2 and Table S3. Thyroid hormones T3, rT3, and T4 were extracted from 20 µL of plasma (5 days) following the procedure outlined by O’Shaughnessy et al.. Briefly, plasma was spiked with internal standards ^13C6-T3, ^13C6-rT3, and ^13C6-T4, and extracted using Evolute CX SPE plates (10 mg, 1 mL, Biotage, Charlotte, NC, USA). Extracts were eluted using a positive pressure manifold. Refer to Supplementary Text S2 for complete details of the extraction method.
Targeted, quantitative analysis of the thyroid hormone levels was conducted using a 6500+ QTRAP liquid chromatography/mass spectrometer system (Sciex, Framingham, MA, USA) operated in positive ion multiple reaction monitoring (MRM) scan mode with electrospray ionization (ESI). […] Gradient elution was obtained using eluent A (0.1% formic acid; FA (aqueous)) and eluent B (MeOH with 0.1% FA). The gradient used is found in Table S4. Additional instrument parameters can be found in Table S5 and monitored transitions in Table S6. Statistical analysis is described in Supplementary Text S3. […]
Support ing Text S1: Chemicals
Chemicals used for solvent and mobile phases include methanol (MeOH), water (H2O), and acetonitrile (ACN) which were LC/MS grade and purchased from Honeywell Burdick & Jackson (Charlotte, NC, USA). Ethanol (EtOH) used as a solvent was ACS grade and purchased from Honeywell Burdick & Jackson. Ammonium formate (BioUltra purity) and ammonium acetate (99% pure) were used as mobile phase additives and obtained from Millipore Sigma (St. Louis, MO, USA). Formic acid (FA; 97.5% pure) was also used as an additive; it was purchased from Honeywell Fluka (Charlotte, NC, USA).
Detailed information for chemicals used for each analysis may be found in Table S1.
Support ing Text S2: Thyroid Hormone Chemicals and Analysis
3,3’,5-Triiodothyronine (Chemical Abstract Service Registry Number (CASRN) 6893-02-3 | U.S.
Environmental Protection Agency (U.S. EPA) Distributed Structure-Searchable Toxicity (DSSTox) substance identifier (DTXSID) DTXSID8023216 | T3; ˃ 99% pure), mass-labeled 3,3’,5-triiodothyronine […]
98% pure), mass-labeled 3,3’,5’-triiodothyronine hydrochloride (13C6-rT3; ˃ 99% pure), L-thyroxine […]
pure) were purchased from Cerilliant Corporation (Round Rock, Texas, USA).
Briefly, a 20 µL aliquot of plasma from each sample was loaded into individual wells of a 96-well collection plate. They were spiked with 5 µL of a 40 ng/mL 13C6-T3, 13C6-rT3 and 13C6-T4 mixed solution followed by 1N hydrochloric acid (HCl) (20 µL) (36.5-38%, Fisher Scientific. Waltham, MA, USA), H2O (100 µL), and a 50:50 H2O/ACN solution (vol/vol) (60 µL) containing 0.1% formic acid (FA). Samples were vortexed, incubated at 37 °C for 2 hours, and brought to room temperature. They were diluted with an aqueous 0.1% acetic acid solution (LC/MS grade, Honeywell Fluka) and vortexed. The SPE well plates (Evolute CX, 96-well SPE plate, 10 mg, 1 mL, Biotage, Charlotte, NC, USA), processed with a positive pressure manifold, were conditioned with methanol followed by an aqueous 0.1% acetic acid solution prior to sample loading with low pressure. Plate wells were washed with 0.1% acetic acid followed by methanol. Thyroid hormones were eluted into a collection plate with 2.5% ammonium hydroxide (NH4OH) (28-30%, Thermo Fisher Scientific, Waltham, MA, USA) in methanol. Extracts were then evaporated to dryness with nitrogen using a Turbovap (Biotage) then reconstituted in 100 µL of 25:75 ACN/H2O (vol/vol) with 0.1% acetic acid. Extracts were stored in amber micro-sampling vials (Agilent Technologies, Santa Clara, CA, USA) prior to instrumental analysis.
Samples were quantitated against matrix-matched calibration curves containing a minimum of 5 points spanning the range 0.005 – 25.00 ng/mL. Calibration standards were made by combining T3, rT3, and T4 analytes with the 13C6-T3, 13C6-rT3, and 13C6-T4 internal standards then with commercial rat […]

O=C(O)C(F)(OC(F)(F)C(F)(OC(F)(F)C(F)(OC(F)(F)C(F)(F)C(F)(F)F)C(F)(F)F)C(F)(F)F)C(F)(F)F (stereo not drawn) [HFPO-TeA, perfluoro-(2,5,8-trimethyl-3,6,9-trioxadodecanoic) acid]
~40: experimental Kp ([1]; 0.2 mg/kg/day for 7 days)
~5: experimental Kp ([1]; 2 mg/kg/day for 7 days)
approximately 20: experimental Kp ([1]; 0.02 mg/kg/day for 7 days)
<LOQ: rT3 Conc. in plasma ([2]; 0.9 mg/kg/day, F, mean ± SD of replicates above LOQ (0.005 ng/mL))
< LOQ: rT3 Conc. in plasma ([2]; 0.3 mg/kg/day, F, individual rats, LOQ 0.005 ng/mL) | rT3 Conc. in plasma ([2]; 0.3 mg/kg/day, M, individual rats, LOQ 0.005 ng/mL) | rT3 Conc. in plasma ([2]; 0.9 mg/kg/day, F, individual rats, LOQ 0.005 ng/mL) | rT3 Conc. in plasma ([2]; 0.9 mg/kg/day, M, individual rats, LOQ 0.005 ng/mL) | rT3 Conc. in plasma ([2]; 0.9 mg/kg/day, M, mean ± SD of replicates above LOQ (0.005 ng/mL)) | rT3 Conc. in plasma ([2]; 2.3 mg/kg/day, F, individual rats, LOQ 0.005 ng/mL) | rT3 Conc. in plasma ([2]; 2.3 mg/kg/day, M, individual rats, LOQ 0.005 ng/mL) | rT3 Conc. in plasma ([2]; 6.3 mg/kg/day, F, individual rats, LOQ 0.005 ng/mL) | rT3 Conc. in plasma ([2]; 6.3 mg/kg/day, M, individual rats, LOQ 0.005 ng/mL) | rT3 Conc. in plasma ([2]; 17 mg/kg/day, F, individual rats, LOQ 0.005 ng/mL) | rT3 Conc. in plasma ([2]; 17 mg/kg/day, M, individual rats, LOQ 0.005 ng/mL)
